{"source": "patent US10975035B2", "about": "“Bicyclic compounds” (Recurium IP Holdings, LLC, priority 2014, dated 2021)", "test_system": "male ICR mice", "experiment": "Formalin paw test", "assay_type": "in vivo, mouse", "conditions": "for Early Phase: early/acute phase (0-10 minutes) after formalin; for Late Phase: late/tonic phase (10-35 minutes) after formalin", "procedure": "One test compound or the vehicle was administered to each mouse in each test group (8 mice per group). Non-fasted male ICR mice weighing 23±3 g were used. Test compounds were administered at a concentration of 3 mg/kg, 10 mg/kg, 15 mg/kg, 30 mg/kg, 60 mg/kg, 100 mg/kg, 200 mg/kg or 300 mg/kg; morphine was administered at a concentration of 5 mg/kg; and acetaminophen was administered at a concentration of 200 mg/kg. The control group received the vehicle (5% DMSO/40% PEG400/20% HPbCD/Saline). After 30 or 60 minutes, a 2% formalin solution (0.02 mL) was injected into one hind paw (sub-plantar) of each mouse. Responses were measured every 5 minutes after the formalin injection for 35 minutes.\nThe results in Table A are for oral administration; the results in Table B are for intraperitoneal administration. In Tables A and B, ‘A’ designates <70 licks/sec, ‘B’ designates ≥70 licks/sec and <165 licks/sec, and ‘C’ designates ≥165 licks/sec.", "key": {"[1]": {"conditions": "intraperitoneal administration, 30 mg/kg"}}, "note": "Where a name gives a salt, the structure may show the parent alone.", "data": [{"smiles": "CC(=O)NC12CC(C(F)(F)F)(C1)C2", "note": "[Compound 4]", "values": [{"measurement": "Early Phase", "setting": "oral administration, 200 mg/kg", "value": "A (‘A’ designates <70 licks/sec)"}, {"measurement": "Late Phase", "setting": "oral administration, 200 mg/kg", "value": "C (‘C’ designates ≥165 licks/sec)"}]}, {"smiles": "CC(=O)N(C)C12CC(C(C)(C)C)(C1)C2", "note": "[Compound 14]", "values": [{"measurement": "Early Phase", "setting": "oral administration, 200 mg/kg", "value": "A (‘A’ designates <70 licks/sec)"}, {"measurement": "Late Phase", "setting": "oral administration, 200 mg/kg", "value": "A (‘A’ designates <70 licks/sec)"}]}, {"smiles": "CC(C)(C)C(=O)NC12CC(C1)C2", "note": "[Compound 12]", "values": [{"measurement": "Early Phase", "setting": "oral administration, 200 mg/kg", "value": "B (‘B’ designates ≥70 licks/sec and <165 licks/sec)"}, {"measurement": "Late Phase", "setting": "oral administration, 200 mg/kg", "value": "C (‘C’ designates ≥165 licks/sec)"}]}, {"smiles": "CC(C)(C)C12CC(CN)(C1)C2", "note": "[Compound 1c, (3-(tert-butyl)bicyclo[1.1.1]pentan-1-yl)methanamine]", "values": [{"measurement": "Early Phase", "setting": "[1]", "value": "B (‘B’ designates ≥70 licks/sec and <165 licks/sec)"}, {"measurement": "Late Phase", "setting": "[1]", "value": "B (‘B’ designates ≥70 licks/sec and <165 licks/sec)"}]}, {"smiles": "CC(C)(C)C(=O)NC12CC(C(C)(C)C)(C1)C2", "note": "[Compound 11]", "values": [{"measurement": "Early Phase", "setting": "oral administration, 200 mg/kg", "value": "A (‘A’ designates <70 licks/sec)"}, {"measurement": "Late Phase", "setting": "oral administration, 200 mg/kg", "value": "A (‘A’ designates <70 licks/sec)"}]}, {"smiles": "CC(=O)NCC12CC(C(F)(F)F)(C1)C2", "note": "[Compound 2]", "values": [{"measurement": "Early Phase", "setting": "oral administration, 200 mg/kg", "value": "B (‘B’ designates ≥70 licks/sec and <165 licks/sec)"}, {"measurement": "Late Phase", "setting": "oral administration, 200 mg/kg", "value": "B (‘B’ designates ≥70 licks/sec and <165 licks/sec)"}]}, {"smiles": "CC(=O)NC12CC(C(C)C)(C1)C2", "note": "[Compound 8]", "values": [{"measurement": "Early Phase", "setting": "oral administration, 200 mg/kg", "value": "A (‘A’ designates <70 licks/sec)"}, {"measurement": "Late Phase", "setting": "oral administration, 200 mg/kg", "value": "A (‘A’ designates <70 licks/sec)"}]}, {"smiles": "CC(=O)NCC12CC(C(C)(C)C)(C1)C2", "note": "[Compound 1, N-((3-(tert-butyl)bicyclo[1.1.1]pentan-1-yl)methyl)acetamide]", "values": [{"measurement": "Early Phase", "setting": "oral administration, 200 mg/kg", "value": "A (‘A’ designates <70 licks/sec)"}, {"measurement": "Late Phase", "setting": "oral administration, 200 mg/kg", "value": "A (‘A’ designates <70 licks/sec)"}]}, {"smiles": "NCCC12CC(C(F)(F)F)(C1)C2", "note": "[Compound 21, 2-(3-(trifluoromethyl)bicyclo[1.1.1]pentan-1-yl)ethanamine, hydrochloride]", "values": [{"measurement": "Early Phase", "setting": "[1]", "value": "B (‘B’ designates ≥70 licks/sec and <165 licks/sec)"}, {"measurement": "Late Phase", "setting": "[1]", "value": "B (‘B’ designates ≥70 licks/sec and <165 licks/sec)"}]}, {"smiles": "O=C(NC12CC(C1)C2)C(F)(F)F", "note": "[Compound 9]", "values": [{"measurement": "Early Phase", "setting": "oral administration, 200 mg/kg", "value": "B (‘B’ designates ≥70 licks/sec and <165 licks/sec)"}, {"measurement": "Late Phase", "setting": "oral administration, 200 mg/kg", "value": "C (‘C’ designates ≥165 licks/sec)"}]}, {"smiles": "CC(=O)NC12CC(C)(C1)C2", "note": "[Compound 6]", "values": [{"measurement": "Early Phase", "setting": "oral administration, 200 mg/kg", "value": "B (‘B’ designates ≥70 licks/sec and <165 licks/sec)"}, {"measurement": "Late Phase", "setting": "oral administration, 200 mg/kg", "value": "B (‘B’ designates ≥70 licks/sec and <165 licks/sec)"}]}, {"smiles": "CC(=O)NC12CC(C(C)(C)O)(C1)C2", "note": "[Compound 18]", "values": [{"measurement": "Early Phase", "setting": "[1]", "value": "B (‘B’ designates ≥70 licks/sec and <165 licks/sec)"}, {"measurement": "Late Phase", "setting": "[1]", "value": "C (‘C’ designates ≥165 licks/sec)"}]}]}
